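Cultured in 96-well plates, cells were exposed to test compound for 48 hours across five concentrations. TGI: concentration producing complete growth inhibition.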
How the values were obtained:
Assay in all cases: NCI-60 cell line screen, 48 h
[1] = tested on: NCI-H23 lung
[2] = tested on: CAKI-1 renal
[3] = tested on: SF-268 CNS
[4] = tested on: HOP-62 NSCLC
[5] = tested on: LOX IMVI melanoma
[6] = tested on: SK-MEL-28 melanoma
[7] = tested on: MDA-MB-231 breast
[8] = tested on: SN12C renal
[9] = tested on: NCI-H226 lung
[10] = tested on: SF-539 CNS
[11] = tested on: SR leukemia
[12] = tested on: KM12 colon
[13] = tested on: MOLT-4 leukemia
[14] = tested on: SK-OV-3 ovarian
[15] = tested on: NCI-H460 lung
[16] = tested on: HCC-2998 colon
[17] = tested on: NCI-H522 lung

Row | SMILES | TGI [1] [µM] | TGI [2] [µM] | TGI [3] [µM] | TGI [4] [µM] | TGI [5] [µM] | TGI [6] [µM] | TGI [7] [µM] | TGI [8] [µM] | TGI [9] [µM] | TGI [10] [µM] | TGI [11] [µM] | TGI [12] [µM] | TGI [13] [µM] | TGI [14] [µM] | TGI [15] [µM] | TGI [16] [µM] | TGI [17] [µM]
1 | OB1OCc2ccccc21 | > 100 | > 100 | > 100 | 62.9 | > 100 | 63 | > 100 | > 100 | > 100 | 64.4 | > 100 | > 100 | > 100 | 47.1 | > 100 |  | 
2 | COc1cc(/C=C/C(=O)C(C)(C)C)cc(OC)c1OC | 94.4 | > 100 | > 100 | > 100 | 44 | > 100 |  | > 100 | 97.9 | > 100 | > 100 | 52.7 | > 100 | > 100 | 67.4 | > 100 | > 100
3 | O=[N+]([O-])c1ccc(-c2ccc(C3=Nn4c(nnc4-c4ccc(Cl)cc4)SC3)o2)cc1 | > 85.9 | > 100 | > 100 | > 76.3 | > 100 | > 100 |  | > 100 | > 100 | > 100 | > 100 | > 100 | > 100 | > 100 | > 100 | > 100 | > 100
4 | Nc1nc(NC(=O)C2=NS(=O)(=O)c3cc(S(N)(=O)=O)c(Cl)cc3N2)n[nH]1 | > 100 | > 100 | > 100 | > 100 | > 100 | > 100 |  | > 100 | > 100 | > 100 | > 100 | > 100 | > 100 | > 100 | > 100 | > 100 | > 100
5 | Cc1cn2cc(-c3ccncc3)nc2s1 | > 100 | > 100 | > 100 | > 100 | > 84.4 | > 100 |  | > 100 | > 100 | > 100 |  | > 100 | > 100 | > 100 | > 100 | > 100 | > 100
6 | CC(C)CCC[C@@H](C)[C@H]1CC[C@H]2[C@@H]3CC=C4CC(OCCCCN(O)CCCSC5OC(CO)C(O)C(O)C5O)CC[C@]4(C)[C@H]3CC[C@]12C (stereo partly drawn) | > 100 | > 100 | > 100 | > 100 | 50.7 | > 100 |  | > 100 |  | 32.8 | > 100 | > 100 | > 100 | > 100 | > 100 |  | 49.6
7 | O=C(CSCC(=O)N/N=C\c1cc(Br)cc(Br)c1O)N/N=C\c1cc(Br)cc(Br)c1O | > 100 | 73 | 58.2 | > 100 | 34.1 | > 100 |  | > 100 | 58.2 | 78.8 | 42 | > 100 | 74.7 | > 100 | > 100 |  | 50.9
8 | Cc1ccc(CCNC(=S)SCC(NC(=O)CCC(N)C(=O)O)C(=O)NCC(=O)O)cc1 (stereo not drawn) | 9.99 | 3.44 | 8.29 | 8.08 | 1.55 | 7.63 |  | 3.84 | 4.47 | 2.97 | 5.91 | 2.68 | 3.93 | 19.2 | 8.09 | 3.54 | 1.45
9 | COc1ccc2[nH]c3c(C)c4ccnc(NCCCN(C)CCCNC(=O)NCCCN(C)CCCNc5nccc6c(C)c7[nH]c8ccc(OC)cc8c7c(C)c56)c4c(C)c3c2c1 | > 19 | 3.34 | 3.25 | 2.11 |  | > 15.5 | > 50 | 2.91 |  | 1.18 |  | > 10.1 | > 12.4 | > 18.4 | 1.34 | 1.13 | 
10 | O=C(N/N=C/c1cc(-c2ccccc2Cl)c(-c2ccccc2Cl)o1)c1ccncc1 | > 100 | > 100 | > 100 | > 100 | > 100 | > 100 |  | > 100 | > 100 | > 100 |  |  |  | > 100 |  |  | > 100
11 | CC(=O)/C=C\C(=O)NNS(=O)(=O)c1ccc(C)cc1 | > 100 | > 100 | > 100 | > 100 | > 100 | > 100 |  | > 100 | > 100 | > 100 | > 100 | > 100 | > 100 | > 100 | > 100 | > 100 | > 100
